Test results as given in patent US7928226B2, “Salts and polymorphs of a VEGF-R inhibitor” (Agouron Pharmaceuticals Inc., priority 2005, dated 2011).
Like-named read-outs stand apart in the source and are kept apart here.

Columns and labels:
[1] = Solid state stability at 40° C./75% RH (HPLC and polymorphic form); type: physicochemical
Experimental: The solid state stabilities as shown in Tables 5 and 7 were measured using the following procedure. A preliminary HPLC method was developed to investigate the stability of the salt forms of compound 1. The HPLC conditions are listed below.

Water solubility = type: physicochemical
[2] = tested on: endothelial cell survival; settings: cited from earlier work
[3] = tested on: VEGF-stimulated receptor autophosphorylation; settings: cited from earlier work
human xenograft tumors = settings: in vivo; cited from earlier work
tumor angiogenesis = settings: in vivo; cited from earlier work

Structure (SMILES)	Solid state stability, polymorphic form found, T (1 week) close ([1]; bis-HBr salt)	Solid state stability, polymorphic form found, T (1 week) open ([1]; bis-HBr salt)	Solid state stability, polymorphic form found, T (4 week) close ([1]; bis-HBr salt)	Solid state stability, polymorphic form found, T (4 week) open ([1]; bis-HBr salt)	Solid state stability, polymorphic form found, T (6 week) close ([1]; bis-HBr salt)	Solid state stability, polymorphic form found, T (6 week) open ([1]; bis-HBr salt)	Solid state stability, polymorphic form found, T (0) ([1]; bis-HBr salt)	Solid state stability, polymorphic form found, T (1 week) close ([1]; bis-maleate salt)	Solid state stability, polymorphic form found, T (4 week) close ([1]; bis-maleate salt)	Solid state stability (HPLC %) T (6 week) close ([1]; bis-maleate salt) [%]	Solid state stability, polymorphic form found, T (6 week) close ([1]; bis-maleate salt)	Solid state stability (HPLC %) T (0) ([1]; bis-maleate salt) [%]	Solid state stability, polymorphic form found, T (0) ([1]; bis-maleate salt)	other results
CNC(=O)c1c(C)oc2cc(Oc3ccnc4cc(OCCN5CCOCC5)ccc34)ccc12 [Bis-HBr Form I, N,2-dimethyl-6-[7-(2-morpholinoethoxy)quinolin-4-yloxy]benzofuran-3-carboxamide]	Form 1	Form I & II	Form I & II	Form II	Form II	Form II	Form 1							solubility (Water solubility; pH 3.4, read-out: Solubility): > 30 mg/mL
CNC(=O)c1c(C)oc2cc(Oc3ccnc4cc(OCCN5CCOCC5)ccc34)ccc12 [Bis-HBr Form II, N,2-dimethyl-6-[7-(2-morpholinoethoxy)quinolin-4-yloxy]benzofuran-3-carboxamide]	Form II	Form II	Form II	Form II	Form II	Form II	Form II							Solid state stability (HPLC %) T (1 week) close ([1]; bis-HBr salt): 98.70%; Solid state stability (HPLC %) T (1 week) open ([1]; bis-HBr salt): 98.61%; Solid state stability (HPLC %) T (4 week) close ([1]; bis-HBr salt): 98.66%; Solid state stability (HPLC %) T (4 week) open ([1]; bis-HBr salt): 98.62%; Solid state stability (HPLC %) T (6 week) close ([1]; bis-HBr salt): 98.61%; Solid state stability (HPLC %) T (6 week) open ([1]; bis-HBr salt): 98.49%; Solid state stability (HPLC %) T (0) ([1]; bis-HBr salt): 98.53%; solubility (Water solubility; pH 3.4): >30 mg/ml (pH 3.4)
CNC(=O)c1c(C)oc2cc(Oc3ccnc4cc(OCCN5CCOCC5)ccc34)ccc12 [Bis-maleate Form I, N,2-dimethyl-6-[7-(2-morpholinoethoxy)quinolin-4-yloxy]benzofuran-3-carboxamide]								Form I	Form I	99.9	Form I	99.9	Form I	Solid state stability (HPLC %) T (1 week) close ([1]; bis-maleate salt): 99.9%; Solid state stability (HPLC %) T (1 week) open ([1]; bis-maleate salt): 99.9%; Solid state stability, polymorphic form found, T (1 week) open ([1]; bis-maleate salt): Form I; Solid state stability (HPLC %) T (4 week) close ([1]; bis-maleate salt): 99.9%; Solid state stability (HPLC %) T (4 week) open ([1]; bis-maleate salt): 99.9%; Solid state stability, polymorphic form found, T (4 week) open ([1]; bis-maleate salt): Form I; Solid state stability (HPLC %) T (6 week) open ([1]; bis-maleate salt): 99.8%; Solid state stability, polymorphic form found, T (6 week) open ([1]; bis-maleate salt): Form I; solubility (Water solubility; pH 3.6, read-out: Solubility): ≥ 150 mg/mL
CNC(=O)c1c(C)oc2cc(Oc3ccnc4cc(OCCN5CCOCC5)ccc34)ccc12 [Bis-maleate Form III, N,2-dimethyl-6-[7-(2-morpholinoethoxy)quinolin-4-yloxy]benzofuran-3-carboxamide]								Form III	Form III	99.9	Form III	99.9	Form III	solubility (Water solubility; pH 3.8, read-out: Solubility): ≥ 30 mg/mL
CNC(=O)c1c(C)oc2cc(Oc3ccnc4cc(OCCN5CCOCC5)ccc34)ccc12 [compound 1, N,2-dimethyl-6-[7-(2-morpholinoethoxy)quinolin-4-yloxy]benzofuran-3-carboxamide]														blocking of endothelial cell survival [2]: selectively blocks; blocking of VEGF-stimulated receptor autophosphorylation [3]: selectively blocks; inhibition of the growth of human xenograft tumors (human xenograft tumors): significant inhibition; inhibition of tumor angiogenesis (tumor angiogenesis): significant inhibition
